Measurements taken from patent US20110281807A1, “PLANT DISEASE CONTROL AGENT COMPRISING D-TAGATOSE AS ACTIVE INGREDIENT, AND PLANT DISEASE CONTROL METHOD” (NATIONAL UNIVERSITY CORPORATION KAGAWA UNIVERSITY, priority 2008, published 2011).
Where “and” joins values, the source holds several entries; their conditions need not be identical. Equal entries are not always repeated. Where two headings read alike, the source gives them in different places.

Tests used:
[1] = test system: Pseudoperonospora cubensis; settings: for Preventive value: 5 ml soil drench, inoculated 5 days after drenching
Protocol: Test plants (cucumber, variety: Sagami hanpaku) were seeded and grown until the one true leaf stage. D-Tagatose was diluted to 5% and 1% with distilled water and then 5 ml of the dilution was drenched into the soil of the pot. Five days after drenching, a sporangium suspension of Pseudoperonospora cubensis containing 1×10^3/ml were noculated by spraying on the test plants and then put them for 16 hours in an inoculation chamber (20° C. to 23° C.) to promote disease. Seven days after inoculation the disease severity of the test plants was observed and the effectiveness of test sample was judged. Tests were carried out using two plants for each test set and the disease severity of the test plants was judged. The preventive value was calculated from the degree of disease severity as in Example 1.

Plasmopara viticola [2] = settings: Plasmopara viticola, 168 h, read-out: Preventive value
[3] = test system: Pseudoperonospora cubensis; settings: Pseudoperonospora cubensis, in Cucumis sativus, 168 h, read-out: Preventive value
Protocol: Test plants (cucumber, variety: Sagami hanpaku) were seeded and grown until the one true leaf stage. D-Tagatose was diluted to 5000 ppm and the fungicides were diluted to the concentrations listed in table 14, with distilled water. And then 10 ml of the dilution was sprayed on the test plant. Three days after spraying of the solution, a sporangium suspension of Pseudoperonospora cubensis containing 1×10^3/ml were inoculated by spraying on test plants and then put for 16 hours in an inoculation chamber (20° C. to 23° C.) to promote disease. Seven days after inoculation the disease severity of the test plants was observed and the effectiveness of the test sample was judged. Tests were carried out using two plants for each test set and the disease severity of the test plants was judged in accordance with the following criteria. The preventive value was calculated from the degree of disease severity.
(§1) 0 (No lesion) 1 (Lesion area was not more than 40%) 2 ((Lesion area was 40%-80%) 3 (Lesion area was not less than 80%)
Preventive value=100{1−(n/N)} N=disease severity of untreated leaf, n=disease severity of the test leaf Synergistic effect was determined by Colby's equation.

[4] = test system: Erysiphe graminis f.sp. hordei; settings: Blumeria graminis, in Hordeum vulgare, 168 h, read-out: Preventive value
Protocol: Test plants (barley, variety: Akashinriki) were seeded and grown until the one leaf stage. D-tagatose and fungicide were diluted to 5000 ppm and the concentrations listed in table 21, respectively, with distilled water and 10 ml of the dilution was sprayed thoroughly on the plants. Three days after spraying, a condia suspension of Erysiphe graminis f.sp. hordei was inoculated by spraying on test plants. 7 days after inoculation the disease severity of the test plants was observed and the effectiveness of test sample was judged.

Sphaerotheca fuliginea = settings: Podosphaera fuliginea, in Cucumis sativus, 168 h, read-out: Preventive value
Protocol: Test plants (cucumber, variety: Sagami hanpaku) were seeded and grown until the one true leaf stage. D-Tagatose and fungicide were diluted to 5000 ppm and the concentrations listed in table 20, respectively, with distilled water and 10 ml of the dilution was sprayed thoroughly on the plants. Three days after spraying, a condia suspension containing of Sphaerotheca fuliginea were inoculated by spraying on test plants.
Seven days after inoculation the disease severity of the test plants was observed and the effectiveness of test sample was judged.

[5] = test system: Pseudoperonospora cubensis; assay: cucumber downy mildew, field trial; type: in vivo; settings: for D.D.S (Degree of disease severity), Av / P.V. (Preventive value), Av / n/N × 100, Av: average of plots; for D.D.S (Degree of disease severity) / P.V. (Preventive value) / n/N × 100 / Disease severity 0: number of leaves / Disease severity 1: number of leaves / Disease severity 2: number of leaves / Disease severity 3: number of leaves / Disease severity 4: number of leaves: per plot (a, b); for Disease severity 0: number of leaves / Disease severity 1: number of leaves / Disease severity 2: number of leaves / Disease severity 3: number of leaves / Disease severity 4: number of leaves: 50 leaves
Pyricularia oryze = assay: whole plant or invertebrate; type: in vivo; settings: Pyricularia, in Oryza sativa, 168 h, read-out: Preventive value
Botrytis cinerea = settings: Botrytis cinerea, in Solanum lycopersicum, 168 h, read-out: Preventive value
Protocol: Test plants (tomato, variety: Ogata-fukujyu) were seeded and grown until the three leaf stage. D-Tagatose and fungicide were diluted to 10000 ppm and the concentrations liste in table 23, respectively, with distilled water and 10 ml of the dilution was sprayed on the plants. Three days after spraying the solution, condia suspension of Botrytis cinerea were inoculated by spraying on test plants and then put for 16 hours in an inoculation chamber (20° C. to 23° C.) to promote disease. Seven days after inoculation, the disease severity of the test plants was observed and the effectiveness of test sample was judged.

Puccinia recondita [6] = settings: Puccinia recondita, in Triticum aestivum, 168 h, read-out: Preventive value
Pythium glaminicola = settings: for Preventive value: 10 ml soil drench, from percentage of onset area after 2 weeks
Protocol: Four germinated rice seeds (variety: Koshihikari) were sowed in a pot (5×5 cm), which contains infected soil with Pythium glaminicola (mycelium 100 g/1 L soil). The pot was drenched with 10 ml of D-tagatose dilution and the seeds were covered with soil. After 2 weeks, the disease severity of the test plants per rice seedling in 25 cm^2 was observed and the effectiveness of test sample was judged. Tests were carried out in duplicate and the preventive value was calculated from percentage of onset area.

[7] = test system: Pseudoperonospora cubensis; settings: Pseudoperonospora cubensis, in Cucumis sativus, 168 h, read-out: Preventive value; remark: listed apart in the source
Phytophthora infestans = assay: whole plant or invertebrate; type: in vivo; settings: Phytophthora infestans, in Solanum lycopersicum, 168 h, read-out: Preventive value
Pythium aphanidermatum = settings: for Preventive value: 10 ml soil drench, from germination rate after 2 weeks
Protocol: Five seeds of test plants (cucumber, variety: Sagami hanpaku) were sowed in a pot (5×5 cm), which contains infested soil with Pythium aphanidermatum (mycelium 100 g/1 L soil) and the seeds were covered with the soil. […] After 2 weeks, the disease severity of the test plants was observed and the effectiveness of test sample was judged. Tests were carried out in triplicate using 5 plants for each test set and the preventive value was calculated from the germination rate.

[8] = test system: Pseudoperonospora cubensis; assay: cucumber downy mildew, pot test: curative effect
Protocol: Test plants (cucumber, variety: Sagami hanpaku) were seeded and grown until the one true leaf stage. And then a sporangium suspension of Pseudoperonospora cubensis containing 1×10^3/ml were sprayed on the back side of the leaves of test plants for inoculation and then the plants were put for 16 hours in an inoculation chamber (20° C. to 23° C.) to promote disease. For a curative test, the inoculated plants as described above were used.
D-Tagatose was diluted to 5%, 1% and 0.5% with distilled water and then 10 ml of the dilution was sprayed on the test plant. Seven days after the spraying of D-tagatose the disease severity of the test plants was observed and the effectiveness of test sample was judged. Tests were carried out using two plants for each test set and the disease severity of the test plants was judged. The control value was calculated from the degree of disease severity as in Example 1.

[9] = test system: Pseudoperonospora cubensis; assay: cucumber downy mildew, pot test: preventive effect; settings: for Preventive value (3 DAS): inoculated 3 days after spraying; for Preventive value (5 DAS): inoculated 5 days after spraying
Protocol: Test plants (cucumber, variety: Sagami hanpaku) were seeded and grown until the one true leaf stage. D-Tagatose was diluted to 5%, 1% and 0.5% with distilled water and then 10 ml of the dilution was sprayed on the test plant. Three or five days after spraying, a sporangium suspension of Pseudoperonospora cubensis containing 1×10^3/ml were inoculated by spraying on test plants and then the plants were put for 16 hours in an incubation chamber (20° C. to 23° C.) to promote disease. Seven days after inoculation the disease severity of the test plants was observed and the effectiveness of test sample was judged. Tests were carried out using two plants for each test set and the disease severity of the test plants was judged in accordance with the following criteria. The preventive value was calculated from the degree of the disease severity.
as §1
Preventive value=100{1−(n/N)} N=disease severity of untreated leaf, n=disease severity of the tested leaf

Sphaerotheca fuligine = assay: cucumber powdery mildew, pot test: preventive effect; settings: for Preventive value: inoculated 3 days after spraying
Protocol: Test plants (cucumber, variety: Sagami-hanpaku) were seeded and grown until the one true leaf stage. D-tagatose was diluted to 5% and 1% with distilled water and then 10 ml of the dilution was sprayed on the test plant. Three days after spraying, a condia suspension of Sphaerotheca fuligine was inoculated by spraying on test plants. Seven days after inoculation the disease severity of the test plants was observed and the effectiveness of test sample was judged. Tests were carried out using two plants for each test set and the disease severity of the test plants was judged in accordance with the following criteria.

Plasmopara viticola [10] = assay: vine downy mildew, field test; settings: for D.D.S (Degree of disease severity), Av / P.V. (Preventive value), Av / n/N × 100, Av: average of plots
Protocol: Test plants (variety: kyoho) were grown until approximately 10 leaves. […] After the first spraying of the dilution, grape leaves were infected by spraying a sporangium suspension of Plasmopara viticola containing 1×10^3/ml. The disease severity of the test plants was observed 7 days after last spraying, and the effectiveness of test sample was judged. Tests were carried out in triplicate using half of the test plant per each test. The disease severity of the test plants was judged in accordance with the following criteria. The preventive value was calculated from the degree of disease severity.
0 (No lesion) 1 (Lesion area was not more than 5% of the leaf area) 2 ((Lesion area was 5%-25% of the leaf area) 3 (Lesion area was 25%-50% of the leaf area) 4 (Lesion area was not less than 50% of the leaf area)

Puccinia recondita [11] = assay: wheat brown rust, field trial
Protocol: Test plants (variety: Nourin 61 gou) were sowed and grown until heading stage. D-Tagatose was diluted to 5% with distilled water and sprayed thoroughly on the plants two times every 8 days. Three days after the first spraying of the dilution, wheat leaves inoculated with wheat fusarium blight (Puccinia recondita) were kept in the test plants. The disease severity of the test plants was observed 21 days after last spraying and the effectiveness of test sample was judged. Tests were carried out in duplicate. One plot of each test was 5 m^2. The disease severity of the test plants was judged in accordance with the following criteria. The preventive value was calculated from the degree of disease severity.

Peronospora parasitica = assay: cabbage downy mildew, pot test: preventive effect; settings: for Preventive value: inoculated 3 days after spraying
Protocol: Test plants (cabbage, variety: Shikidori) were seeded and grown until 4 leaves stage. […] Three days after spraying, a suspension containing condia of cucumber downy mildew (Peronospora parasitica) was inoculated by spraying on test plants. Seven days after inoculation the disease severity of the test plants was observed and the effectiveness of test sample was judged. Tests were carried out using two plants for each test set and the disease severity of test plants was judged in accordance with the following criteria. The preventive value was calculated from the degree of disease severity as in Example 1.

[12] = 50000 ppm spray, listed as D-tagatose
[13] = 10000 ppm, per plot (1-3), 50 leaves
[14] = 50000 ppm, per plot (1-3), 50 leaves
[15] = 50000 ppm, per plot (1, 2), 100 leaves

Structure (SMILES): O=C(CO)[C@@H](O)[C@@H](O)[C@H](O)CO [D-Tagatose, D-tagatose]
- Preventive value ([1]; 10000 ppm): 95.0
- Preventive value ([1]; 10000 ppm, listed as D-tagatose): 95
- Preventive value ([1]; 50000 ppm): 100.0
- Preventive value ([1]; 50000 ppm, listed as D-tagatose): 100
- effectiveness in words ([1]; drench treatment): effective enough
- pest or weed control at 5000 ppm (Plasmopara viticola [2]): 17%
- pest or weed control at 10000 ppm (Plasmopara viticola [2]): 67%
- pest or weed control at 5000 ppm [3]: 40%
- pest or weed control at 10000 ppm [3]: 83%
- pest or weed control at 5000 ppm [4]: 50%
- pest or weed control at 10000 ppm [4]: 73%
- pest or weed control at 5000 ppm (Sphaerotheca fuliginea): 40%
- pest or weed control at 10000 ppm (Sphaerotheca fuliginea): 93%
- D.D.S (Degree of disease severity), Av ([5]; 10000 ppm): 2.25
- P.V. (Preventive value), Av ([5]; 10000 ppm): 96.5
- n/N × 100, Av ([5]; 10000 ppm): 9.0
- D.D.S (Degree of disease severity) ([5]; 10000 ppm): 3.00 and 1.50
- P.V. (Preventive value) ([5]; 10000 ppm): 95.4 and 97.7
- n/N × 100 ([5]; 10000 ppm): 12.0 and 6.0
- Disease severity 0: number of leaves ([5]; 10000 ppm): 44 and 47
- Disease severity 1: number of leaves ([5]; 10000 ppm): 6 and 3
- Disease severity 2: number of leaves ([5]; 10000 ppm): 0
- Disease severity 3: number of leaves ([5]; 10000 ppm): 0
- Disease severity 4: number of leaves ([5]; 10000 ppm): 0
- D.D.S (Degree of disease severity), Av ([5]; 50000 ppm): 2.50
- P.V. (Preventive value), Av ([5]; 50000 ppm): 96.1
- n/N × 100, Av ([5]; 50000 ppm): 10.0
- D.D.S (Degree of disease severity) ([5]; 50000 ppm): 3.00 and 2.00
- P.V. (Preventive value) ([5]; 50000 ppm): 95.4 and 96.9
- n/N × 100 ([5]; 50000 ppm): 12.0 and 8.0
- Disease severity 0: number of leaves ([5]; 50000 ppm): 44 and 46
- Disease severity 1: number of leaves ([5]; 50000 ppm): 6 and 4
- Disease severity 2: number of leaves ([5]; 50000 ppm): 0
- Disease severity 3: number of leaves ([5]; 50000 ppm): 0
- Disease severity 4: number of leaves ([5]; 50000 ppm): 0
- effectiveness in words ([5]; field test): effective enough
- pest or weed control at 10000 ppm (Pyricularia oryze): 0%
- pest or weed control at 50000 ppm (Pyricularia oryze): 50%
- pest or weed control at 10000 ppm (Botrytis cinerea): 0%
- pest or weed control at 50000 ppm (Botrytis cinerea): 17%
- pest or weed control at 10000 ppm (Puccinia recondita [6]): 17%
- pest or weed control at 50000 ppm (Puccinia recondita [6]): 50%
- Preventive value (Pythium glaminicola; 10000 ppm): 77.3
- Preventive value (Pythium glaminicola; 50000 ppm): 96.2
- effectiveness in words (Pythium glaminicola; soil drench): effective enough
- pest or weed control at 5000 ppm [7]: 33%
- pest or weed control at 10000 ppm [7]: 73%
- pest or weed control at 5000 ppm (Phytophthora infestans): 0%
- pest or weed control at 10000 ppm (Phytophthora infestans): 40%
- Preventive value (Pythium aphanidermatum; 10000 ppm): 70.0
- Preventive value (Pythium aphanidermatum; 50000 ppm): 92.5
- effectiveness in words (Pythium aphanidermatum; soil drench): effective enough
- Preventive value (control value) ([8]; 5000 ppm sprayed after inoculation (curative)): 22.5
- Preventive value (control value) ([8]; 10000 ppm sprayed after inoculation (curative)): 91.7
- Preventive value (control value) ([8]; 50000 ppm sprayed after inoculation (curative)): 100.0
- Preventive value (control value) ([8]; 50000 ppm sprayed after inoculation (curative), listed as D-tagatose): 100
- effectiveness in words ([8]; curative test condition): effective enough
- Preventive value (3 DAS) ([9]; 5000 ppm spray): 49.2
- Preventive value (5 DAS) ([9]; 5000 ppm spray): 37.5
- Preventive value (3 DAS) ([9]; 10000 ppm spray): 99.2
- Preventive value (5 DAS) ([9]; 10000 ppm spray): 90.0
- Preventive value (5 DAS) ([9]; 10000 ppm spray, listed as D-tagatose): 90
- Preventive value (3 DAS) ([9]; 50000 ppm spray): 100.0
- Preventive value (3 DAS) [9, 12]: 100
- Preventive value (5 DAS) ([9]; 50000 ppm spray): 100.0
- Preventive value (5 DAS) [9, 12]: 100
- Preventive value (Sphaerotheca fuligine; 10000 ppm spray): 20.0
- Preventive value (Sphaerotheca fuligine; 50000 ppm spray): 87.5
- effectiveness in words (Sphaerotheca fuligine; foliar spray): effective enough
- D.D.S (Degree of disease severity), Av (Plasmopara viticola [10]; 10000 ppm): 12.75
- P.V. (Preventive value), Av (Plasmopara viticola [10]; 10000 ppm): 71.7
- n/N × 100, Av (Plasmopara viticola [10]; 10000 ppm): 31.0
- D.D.S (Degree of disease severity) (Plasmopara viticola [10]; 10000 ppm, per plot (1-3)): 14.50 and 18.50 and 11.00
- P.V. (Preventive value) (Plasmopara viticola [10]; 10000 ppm, per plot (1-3)): 72.0 and 64.3 and 78.7
- n/N × 100 (Plasmopara viticola [10]; 10000 ppm, per plot (1-3)): 36.0 and 32.0 and 26.0
- Disease severity 0: number of leaves (Plasmopara viticola [10]; [13]): 32 and 34 and 37
- Disease severity 1: number of leaves (Plasmopara viticola [10]; [13]): 8 and 4
- D.D.S (Degree of disease severity), Av (Plasmopara viticola [10]; 50000 ppm): 0.00
- P.V. (Preventive value), Av (Plasmopara viticola [10]; 50000 ppm): 99.4
- n/N × 100, Av (Plasmopara viticola [10]; 50000 ppm): 0.0
- P.V. (Preventive value) (Plasmopara viticola [10]; 50000 ppm, per plot (1-3)): 100.0 and 93.1
- Disease severity 0: number of leaves (Plasmopara viticola [10]; [14]): 50 and 48
- Disease severity 2: number of leaves (Plasmopara viticola [10]; [14]): 0
- Disease severity 3: number of leaves (Plasmopara viticola [10]; [14]): 0
- Disease severity 4: number of leaves (Plasmopara viticola [10]; [14]): 0
- effectiveness in words (Plasmopara viticola [10]; field test): effective enough
- D.D.S (Degree of disease severity), Av (Puccinia recondita [11]; 50000 ppm, average of plots): 6.1
- D.D.S (Degree of disease severity) (Puccinia recondita [11]; 50000 ppm, per plot (1, 2)): 4.7 and 7.5
- Leaves number(n) of disease severity 0 (Puccinia recondita [11]; [15]): 76 and 68
- Leaves number(n) of disease severity 1 (Puccinia recondita [11]; [15]): 22 and 25
- Leaves number(n) of disease severity 4 (Puccinia recondita [11]; [15]): 0
- Leaves number(n) of disease severity 5 (Puccinia recondita [11]; [15]): 0
- Leaves number(n) of disease severity 6 (Puccinia recondita [11]; [15]): 0
- P.V. (Preventive value), Av (Puccinia recondita [11]; 50000 ppm, sprayed two times every 8 days, rated 21 days after last spraying): 92.5
- effectiveness in words (Puccinia recondita [11]; field trial): effective enough
- Preventive value (Peronospora parasitica; 10000 ppm spray): 90.1
- Preventive value (Peronospora parasitica; 50000 ppm spray): 95.1
- effectiveness in words (Peronospora parasitica; foliar spray): effective enough
